The values below come from ChEMBL document CHEMBL1938390, “Pyrazolopyridine inhibitors of B-Raf(V600E). Part 3: an increase in aqueous solubility via the disruption of crystal packing” (Bioorg Med Chem Lett, 2012).

≈ marks a conversion by molar mass, not a printed value. A value given as a limit tells only on which side of the number the result lay.

Data set [1] can be described thus: Solubility of the compound at pH 7.4. Type of data set: physicochemical. To be noted: buffer.
Data set [2] is described as follows: Solubility of the compound at pH 6.5. The note with it: buffer. It counts as physicochemical.
The target of data set [3] is T1, Serine/threonine-protein kinase B-raf (Homo sapiens, UniProt P15056, V600E). Briefly: Inhibition of full-length B-Raf V600E mutant.
T1 sequence (P15056 2-766 V600E limits assumed): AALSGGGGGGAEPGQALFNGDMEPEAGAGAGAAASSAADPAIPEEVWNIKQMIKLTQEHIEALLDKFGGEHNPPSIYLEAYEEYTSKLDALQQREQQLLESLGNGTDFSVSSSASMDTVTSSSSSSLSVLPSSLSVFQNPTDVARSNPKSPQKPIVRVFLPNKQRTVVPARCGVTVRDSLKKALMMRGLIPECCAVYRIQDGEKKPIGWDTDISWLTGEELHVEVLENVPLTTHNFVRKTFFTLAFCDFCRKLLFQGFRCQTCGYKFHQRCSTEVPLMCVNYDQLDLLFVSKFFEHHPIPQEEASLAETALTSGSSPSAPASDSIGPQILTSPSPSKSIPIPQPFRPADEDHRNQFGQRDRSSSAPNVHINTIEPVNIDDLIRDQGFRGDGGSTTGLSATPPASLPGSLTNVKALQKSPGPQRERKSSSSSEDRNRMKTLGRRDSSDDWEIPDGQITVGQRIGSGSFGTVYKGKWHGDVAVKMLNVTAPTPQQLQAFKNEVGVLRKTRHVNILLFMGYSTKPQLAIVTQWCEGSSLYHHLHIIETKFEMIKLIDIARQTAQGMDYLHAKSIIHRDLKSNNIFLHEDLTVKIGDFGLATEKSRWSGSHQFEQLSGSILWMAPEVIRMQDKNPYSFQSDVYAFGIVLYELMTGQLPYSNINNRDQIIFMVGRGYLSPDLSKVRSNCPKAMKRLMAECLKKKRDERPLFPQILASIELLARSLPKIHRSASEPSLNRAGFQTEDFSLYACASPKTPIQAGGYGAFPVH
Data set [4] has as its target T1, Serine/threonine-protein kinase B-raf. The data set is described as follows: Inhibition of B-Raf V600E mutant-mediated Erk phosphorylation in human MALME-3M cells. It counts as cell-based.

As usually defined, the solubility is the dissolved amount per volume that the medium holds. In the case of `CCCS(=O)(=O)Nc1ccc(F)c(C(=O)Nc2cnc3[nH]nc(OC)c3c2)c1F`, the solubility in data set [1] turned out to be 9 µg/mL (≈ 21.2 µM); in data set [2], 4 µg/mL (≈ 9.4 µM).
The corresponding values for `CCCS(=O)(=O)Nc1ccc(Cl)c(C(=O)Nc2cnc3[nH]nc(OC)c3c2)c1F` are 2 µg/mL (≈ 4.53 µM) and less than 1 µg/mL.
As usually defined, the IC50 is the midpoint of a concentration-inhibition curve. A high value points to weaker potency in that assay. With `O=C(Nc1cnc2[nH]nc(C3CC3)c2c1)c1c(F)ccc(NS(=O)(=O)CCCF)c1Cl`, the solubility in data set [1] was 265 µg/mL (≈ 564 µM); in data set [2], 130 µg/mL (≈ 277 µM). The results for the half-maximal inhibitory concentration (IC50) in data set [3] and in data set [4] were 0.6 nM and 51 nM, respectively.
Turning to `CCCS(=O)(=O)Nc1ccc(F)c(C(=O)Nc2cnc3[nH]nc(OC)c3c2)c1Cl`, the solubility is 2 µg/mL (≈ 4.53 µM) in data set [1] and less than 1 µg/mL in data set [2]. For the same compound, the figures for the IC50 in data set [3] and in data set [4] were 2.2 nM and 19 nM, respectively.
On to `CC(C)CS(=O)(=O)Nc1ccc(F)c(C(=O)Nc2cnc3[nH]nc(C4CC4)c3c2)c1Cl`, for which the solubility in data set [1] is less than 1 µg/mL; in data set [2], 1 µg/mL (≈ 2.15 µM). Besides, the IC50 in data set [3] was 2 nM; in data set [4], 18 nM.
For the compound `CCCS(=O)(=O)Nc1ccc(F)c(C(=O)Nc2cnc3[nH]nc(C4CC4)c3c2)c1F`, the solubility is 4 µg/mL (≈ 9.19 µM) in data set [1] and 1 µg/mL (≈ 2.3 µM) in data set [2]. The IC50 in data set [3] stood at 2.7 nM; in data set [4] it was 23 nM.
With `CCCS(=O)(=O)Nc1ccc(F)c(C(=O)Nc2cnc3[nH]nc(C(C)C)c3c2)c1F`, the results for the IC50 in data set [3] and in data set [4] were 14 nM and 89 nM, respectively. Further, the solubility in data set [2] was determined as 6 µg/mL (≈ 13.7 µM).
As to `CCCS(=O)(=O)Nc1ccc(F)c(C(=O)Nc2cnc3[nH]nc(C4CC4)c3c2)c1Cl`, the solubility in data set [1] stood at 127 µg/mL (≈ 281 µM); in data set [2], 54 µg/mL (≈ 119 µM). Also, the IC50 worked out at 3.8 nM in data set [3] and 33 nM in data set [4].
